# In patent US10907168B2, “Jasmonic acid pathway activator” (MEDICAGO INC., priority 2015, dated 2021):
# Entries after “also recorded” stand apart in the source; their conditions may differ.
# Assays:
# [1] = system: 33-kDa pathogen-inducible PR-2 protein; test: 33-kDa PR-2 protein accumulation, immunodetection and densitometry; type: in vivo, Nicotiana benthamiana; conditions: non-infiltrated leaves; sprayed at 0.5 or 1 mM; ANOVA P>0.05
# Description: FIGS. 2a-2c show the effect of MeJA treatment on PR-2 protein accumulation, agrobacteria numbers and transcript numbers of the two A. tumefaciens virulence proteins VirB1 and VirE1 in N. benthamiana leaves. […] Immunoblot signals were quantified using the Phoretix 2-D Expression software v. 2005 (NonLinear USA) after scanning nitrocellulose membranes with a Microtek ScanMaker II digitalizer (Microtek Laboratory). Data are the mean of three leaf replicates±SE. An arbitrary value of 1.0 was assigned to PR-2 level in control healthy leaves. […] Data are expressed as log numbers of colony-forming units (CFU) on agar plates and each point is the mean of five independent (leaf replicate) values±SE. […]
# Whole leaf proteins were extracted from three 1-cm^2 leaf discs in 400 μl of ice-cold 50 mM Tris-HCl, pH 7.5, containing 150 mM NaCl, by disrupting the leaf samples with tungsten carbide beads (Qiagen, Mississauga ON, Canada) in a Mini-Beadbeater apparatus (BioSpec, Bartlesville Okla., USA). […] RuBisCO small subunit was detected using polyclonal IgG raised in rabbit against a synthetic small subunit peptide (Agrisera, Vännäs, Sweden) and alkaline phosphatase-conjugated goat anti-rabbit IgG as secondary antibodies (Sigma-Aldrich). […] C5-1 light and heavy chains were detected with alkaline phosphatase-conjugated goat anti-mouse IgG antibodies (Sigma-Aldrich).
# A. tumefaciens VirB1 = test: Real-time RT PCR of VirB1 transcripts in agroinfiltrated leaves; type: in vivo, Agrobacterium tumefaciens; conditions: 1 mM, seven days post-treatment, Student's t-test P<0.05
# Protocol: mRNA transcripts for C5-1 and A. tumefaciens virulence proteins VirB1 and VirE1 were assayed by real-time RT PCR using an ABI PRISM 7500 Fast real-time PCR apparatus, system version 2.0.1 (Applied Biosystems, Carlsbad Calif., U.S.A.). Total RNA was extracted from two 1-cm^2 leaf discs collected on the third main stem leaf (Robert et al., 2013) using the Qiagen RNeasy plant mini kit (Qiagen), following the supplier's instructions. RNA samples were treated with DNase I (Roche Diagnostics) to remove contaminant DNA and assessed for quality and quantity using a Nanodrop® ND-1000 spectrophotometer (NanoDrop Technologies, Wilmington Del., USA). First-strand cDNA was synthesized from 500 ng of total RNA using 4 units of Omniscript reverse transcriptase (Qiagen) and 1 μM of oligo-dT (15) nucleotides (Roche). PCR reactions contained 10 μl of Fast SYBR Green PCR Master Mix (Applied Biosystems), 2 μl of cDNA template, and 2.5 μl each of appropriate forward and reverse primers at 625 nM final concentration (Table 1). A no-template mixture control was included in each 96-well plate. Amplification rounds consisted of a 20-s denaturation step at 95° C., followed by 40 two-step cycles of 3 s at 95° C. and 30 s at 60° C. […]
# C5-1 antibody = C5-1 antibody immunodetection after non-reducing SDS-PAGE; type: in vivo, Nicotiana benthamiana; conditions: agroinfiltrated leaves; treated 24 h before infiltration; 35S-type C5-1 vector
smiles,measurement,setting,value
"CC/C=C\C[C@H]1C(=O)CC[C@@H]1CC(=O)OC [MeJA, methyl jasmonate]",expression of 33-kDa PR-2 protein,[1],no significant effect
same,VirB1 mRNA transcripts versus control leaves,A. tumefaciens VirB1,negatively altered; also recorded: significantly lower value
same,C5-1 protein band patterns on immunoblot compared to control plants,C5-1 antibody,increased intensity
